From BindingDB's records for doi:10.1021/acs.jmedchem.5b01091 (University of Manchester, 2016)
pIC50: −log10 of the molar value.

Experiment: Inhibition of NLRP3 in mouse J774 macrophages assessed as reduction in Bacillus anthracis lethal toxin induced cell death

Compound: CC1(C)C(=O)C=C[C@]2(C)[C@H]3CC[C@@]4(C)[C@H](c5ccoc5)OC(=O)[C@H]5O[C@]54[C@]3(C)C=C[C@@H]12
- pIC50: 5.30
